The subject of assay [1] is steroidogenesis in H295R cells. It counts as cell-based, human. To be noted: for effect on steroid hormone levels compared with vehicle-treated controls: highest noncytotoxic exposure concentration. As for the experimental part:
All experiments were performed using cells in passages 5 to 10. First, the highest noncytotoxic concentration (<10% decrease in viability) was determined for each compound with MTT assays. Next, the levels of 13 steroid hormones were determined in the medium after exposure of the H295R cells to the highest noncytotoxic concentration using LC-MS/MS. These concentrations were tested in triplicate (n = 3) in 3 independent experiments (N = 3), and all 9 samples were measured in LC-MS/MS. […] These dilution series were tested in 3 independent experiments (N = 3), with triplicate exposures in each of these experiments (n = 3). Supernatants of the triplicate exposures per experiment were pooled after the 48 h of exposure and the 3 pooled samples were measured with LC-MS/MS. This was done to keep the number of LC-MS/MS measurements manageable.
The exposure medium was prepared by diluting stock solutions 1,000× in the cell culture medium to obtain a final concentration of 0.1% of the solvent. Exposure was started by replacing cell culture medium with the exposure medium. […] On a separate quality control plate, cells were exposed to 10 μM forskolin (Sigma-Aldrich) and 1 μM prochloraz (Sigma-Aldrich) to serve as positive control for increased and decreased steroid hormone secretion, respectively. Exposure was started by replacing the culture medium in the cell culture plates with the exposure medium.
After 48 h of exposure, the supernatant medium from each well was transferred to the wells of a clean 48-well plate, and that plate was stored at −80 °C for later steroid measurement. MTT assays were performed by adding 500 μl of 0.5 mg/ml MTT (3-(4,5-dimethylthiazol-2-yl)-2,5-diphenyltetrazolium bromide; Sigma-Aldrich) solution in medium to each well of the 24-well cell culture plate and incubating for 1 h at 37 °C with 5% CO2. After incubation, the MTT solution was discarded and 500 μl of DMSO was added to each well to lyse the cells and dissolve the formazan crystals. Plates were shaken at 700 rpm for 10 min and absorbance was measured at 560 nm wavelength.
Hormones were concentrated from supernatants by solid phase extraction using Bond Elut Plexa cartridges, 30 mg sorbent, 1.8 ml (Agilent Technologies, Santa Clara, CA, United States). The cartridges were conditioned with 1 ml of 0.5% formic acid in methanol, and subsequent addition of 1 ml of 0.5% formic acid in water. A mix of 100 μl of H295R medium sample in 1 ml of 2% formic acid in water and 50 μl of isotopically labeled internal standards mix (Table S1) was loaded on the cartridges. These were then washed with 1 ml of water followed by 1 ml of water–methanol mixture (70:30, v/v). Cartridges were dried by vacuum and the hormones were eluted with 700 μl of methanol into 96-well-deep well polypropylene plates. Eluates were evaporated to dryness during approximately 2 h in a refrigerated CentriVap vacuum concentrator and reconstituted in 150 μl of water–methanol mixture (1:1, v/v). Additionally, a serial 12-point dilution series of a mix of native steroid hormones was prepared to fit a calibration curve in order to quantify steroid concentrations.
The steroid hormones were separated prior to MS measurements on a Kinetex C18 LC Column (2.6 μm, 100 × 2.1 mm; Phenomenex, CA, United States) coupled to an Exion LC system (SCIEX, Framingham, MA, United States). The mobile phase consisted of 0.2 mM NH4F in water and pure methanol and was delivered at a flow rate of 0.6 ml/min in a gradient elution mode. The injection volume was 10 μl.
The LC-MS/MS raw data were processed using AB Sciex OS Analyst version 1.6.2 (SCIEX, Framingham, MA, United States) to calculate fold changes by dividing the measured hormone concentrations by the hormone concentrations in the vehicle controls. The fold changes were used to fit a concentration–response curve in GraphPad Prism using the same model as in the reporter gene assays, and the ECIR1.5 was estimated for each compound.

In assay [2] the target is human transthyretin (TTR) (Homo sapiens, UniProt P02766). In words: FITC-T4 TTR-binding assay, initial (original) method. To be noted: initial method; 110 nM FITC-T4, 30 nM TTR. As to the method:
All incubations were performed at room temperature.
Fluorescence enhancement was determined for each well by subtracting its relative fluorescence units (RFU) before TTR addition from its RFUs after TTR addition. The resulting values were normalized to percentages of the vehicle control. A concentration–response curve was fitted through the data using the same model as in the reporter gene assays.
After 15 min of incubation, fluorescence was measured and fluorescence enhancement was calculated by subtracting RFU without TTR from RFU with TTR. Further data analysis was similar to the screening assays.

SMILES strings stand for the structures. Where two headings read alike, the source gives them in different places.

As to `CC(C)(C)[C@@H](O)[C@@H](Cc1ccc(Cl)cc1)n1cncn1` (racemic) [Paclobutrazol], the “increased levels of progesterone and 17α-OH-progesterone compared with vehicle-treated controls” value in assay [1] (H295R, 48 h) is given as “up to 3.5 fold”. For the same compound, the “effect on steroid hormone levels compared with vehicle-treated controls” value (“effect … compared with vehicle-treated controls” below) in assay [1] (48 h) is “increased levels of progesterone and decreased levels of androgens, estrogens, and corticosteroids”.

For `CCNc1nc(Cl)nc(NC(C)C)n1` [Atrazine], in assay [1] (H295R, concentration 0.3 uM), the “11 deoxycorticosterone mean fold change” value is given as 1.225 fold change, the “17aOH progesterone mean fold change” value is given as 1.062 fold change, the “17b E2 mean fold change” value is on record as 1.11 fold change and the “E1 mean fold change” value was determined as 0.9324 fold change. Also, in assay [1] (H295R, concentration 0.3 uM), the “androstenedione mean fold change” value worked out at 1.124 fold change, the “corticosterone mean fold change” value was 1.264 fold change, the “cortisol mean fold change” value worked out at 1.18 fold change and the “testosterone mean fold change” value is listed as 1.092 fold change. In assay [1] (H295R, concentration 1 uM), the “11 deoxycorticosterone mean fold change” value was determined as 1.279 fold change, the “17aOH progesterone mean fold change” value was determined as 1.128 fold change, the “17b E2 mean fold change” value came out at 1.2477 fold change and the “E1 mean fold change” value was 1.144 fold change. In addition, in assay [1] (H295R, concentration 1 uM), the “androstenedione mean fold change” value is 1.188 fold change, the “corticosterone mean fold change” value came to 1.609 fold change, the “cortisol mean fold change” value is recorded as 1.21 fold change and the “testosterone mean fold change” value is given as 1.129 fold change. In assay [1] (H295R, concentration 3 uM), the “11 deoxycorticosterone mean fold change” value is 1.291 fold change, the “17aOH progesterone mean fold change” value worked out at 1.151 fold change, the “17b E2 mean fold change” value was 1.487 fold change and the “E1 mean fold change” value is recorded as 1.415 fold change. Moreover, in assay [1] (H295R, concentration 3 uM), the “androstenedione mean fold change” value is listed as 1.193 fold change, the “corticosterone mean fold change” value is given as 1.535 fold change, the “cortisol mean fold change” value was found to be 1.258 fold change and the “testosterone mean fold change” value came to 1.198 fold change. In assay [1] (H295R, concentration 10 uM), the “11 deoxycorticosterone mean fold change” value is 1.493 fold change, the “17aOH progesterone mean fold change” value is on record as 1.43 fold change, the “17b E2 mean fold change” value worked out at 2.183 fold change and the “E1 mean fold change” value was 2.232 fold change. In addition, in assay [1] (H295R, concentration 10 uM), the “androstenedione mean fold change” value is listed as 1.47 fold change, the “corticosterone mean fold change” value turned out to be 2.296 fold change, the “cortisol mean fold change” value is recorded as 1.583 fold change and the “testosterone mean fold change” value stood at 1.47 fold change. In addition, in assay [1] (H295R, concentration 30 uM), the “11 deoxycorticosterone mean fold change” value came to 1.712 fold change, the “17aOH progesterone mean fold change” value is recorded as 1.877 fold change, the “17b E2 mean fold change” value turned out to be 2.732 fold change and the “E1 mean fold change” value turned out to be 3.048 fold change. For the same compound, in assay [1] (H295R, concentration 30 uM), the “androstenedione mean fold change” value is recorded as 1.542 fold change, the “corticosterone mean fold change” value turned out to be 2.489 fold change, the “cortisol mean fold change” value is listed as 1.7 fold change and the “testosterone mean fold change” value was 1.645 fold change. For the same compound, in assay [1] (H295R, concentration 100 uM), the “11 deoxycorticosterone mean fold change” value is 2.107 fold change, the “17aOH progesterone mean fold change” value worked out at 2.139 fold change, the “17b E2 mean fold change” value is 2.968 fold change and the “E1 mean fold change” value amounted to 3.994 fold change. Moreover, in assay [1] (H295R, concentration 100 uM), the “androstenedione mean fold change” value is 1.612 fold change, the “corticosterone mean fold change” value is on record as 3.324 fold change, the “cortisol mean fold change” value is 2.203 fold change and the “testosterone mean fold change” value is recorded as 1.74 fold change. The “effect … compared with vehicle-treated controls” value in assay [1] (48 h) is “increased levels of progestogens, androgens, estrogens, and corticosteroids”.

Turning to `CC(C)Nc1nc(N)nc(Cl)n1` [Deethyl-atrazine], in assay [1] (48 h), the “effect … compared with vehicle-treated controls” value was “increased levels of progestogens, androgens, estrogens, and corticosteroids”.

`NC(Cc1cc(I)c(Oc2cc(I)c(O)c(I)c2)c(I)c1)C(=O)O` (centres unmarked) [T4, thyroxine, reference compound]: the “IC10 competing with FITC-T4 for binding to TTR” value in assay [2] was 2.4 nM.

(Values after article PMC11589101, “Profiling the endocrine-disrupting properties of triazines, triazoles, and short-chain PFAS” (Toxicological Sciences, 2024).)
